Measured values from patent publication US20240148728A1, “NOVEL METHOD TO BLOCK IN[…] DEATH AND IL-1BETA SECRETION CAUSED BY […] UV I[…] GENETIC AND CHEMICAL INHIBITORS OF ZAKA AND THE NLRP1 INFLAMMASOME” (priority 2021, published 2024).

Legend:
Format in all cases: cell-based, human
[1] = test system: immortalized keratinocytes (N-TERT); test: Pyroptosis / apoptosis in N-TERT keratinocytes (morphology, ASC-GFP, PI, Annexin V, immunoblot); conditions: for morphological hallmarks of inflammasome activation and pyroptotic cell death: membrane ballooning, ASC-GFP specks, PI uptake
Text: (§1) The following antibodies were used in this study: cleaved PARP1 (Abclonal, #WH162766), Cleaved CASP3 (Abclonal, #WH154646), Full length GSDMD-FL (Abcam, #ab210070), IL1β p17 specific (CST, #83186S), CARD8 (Abcam, CARD8-NT: ab19485, CARD8-CT: ab241186), DPP9 (Abcam, ab226334), c-Myc (Santa Cruz Biotechnology, #sc-40), HA tag (Santa Cruz Biotechnology, #sc-805), GAPDH (Santa Cruz Biotechnology, #sc-47724), ASC (Adipogen, #AL-177), CASP1 (Santa Cruz Biotechnology, #sc-622), 11_1B (R&D systems, #AF-201), FLAG (SigmaAldrich, #F3165), NLRP1 (R&D systems, #AF6788), IL18 (Abcam ab207324), cleaved GSDMD-NT (Asp275) (Cell Signaling Technology, #36425), RPL31 (Abclonal, #WH162766), CASP7 (Abcam, ab255818), CASP8 (Abcam, ab32397), cleaved CASP3 (Cell Signaling Technology, #9664). All horseradish peroxidase (HRP)— conjugated secondary antibodies were purchased from Jackson Immunoresearch (goat anti-mouse IgG: 115-035-166; goat anti-rabbit IgG: 111-035-144; and donkey anti-goat IgG: 705-005-147). Blue-Native PAGE was carried out using the Native-PAGE system (ThermoFisher) with 10-20 μg of total lysate. For SDS-PAGE using whole cell lysates, cells were resuspended in tris-buffered saline 1% NP-40 with protease inhibitors (Thermo Scientific, #78430). Protein concentration was determined using the Bradford assay (Thermo Scientific, #23200) and […] of protein loaded, a part from cleaved GSDMD-NT visualisation where […] of protein was used. All primary antibodies were used at 250 ng/ml. Visualisation of ASC oligomerization was previously described (Robinson et al., 2020). For analysis of IL1β and IL-18 cleavage in the media by immunoblotting, samples were concentrated using filtered centrifugation (Merck, Amicon Ultra, #UFC5003BIK). Protein samples were run using immunoblotting, and then visualized using a ChemiDoc Imaging system (Bio-Rad). PhosTag SDS-PAGE was carried out using homemade 10% SDS-PAGE gel, with addition of Phos-tag Acrylamide (Wako Chemicals, AAL-107) to a final concentration of 30 μM and manganese chloride(II) (Sigma-Aldrich, #63535) to 60 μM.
N-TERT-ASC-GFP cells were seeded at a cell density of 3000 cells/well of a 96 black well plate (PerkinElmer, CellCarrier-96 Ultra, #6055300). The next morning cells were treated with chemicals for 6 h or treated in the evening for 24 h before staining. 1 hour before observing the cells on the microscope the cells were stained with 1 μg/ml dilution of propidium iodide (PI, Abcam #ab14083), 10 ng/ml dilution of Hoechst 33342 (Life Technologies, #H21492) or stained with Annexin V Alexa Flour 647 (Life technologies, #A23204) according to the manufacturer's protocol. Stained cells were then imaged on a high content screening microscope (Perkin Elmer Operetta CLS imaging system). Images were then stored and analyzed using the Harmony software (Version 6). Fluorescent and brightfield images acquired on the Operetta high content screening microscope were further analyzed using a scoring system to categorize the percentages of live, apoptotic and pyroptotic cells. For 3 fields of view per treatment the number of live cells per field was counted from the merge of the brightfield and ASC-GFP channels. Only cells which contained ASC-GFP throughout the cytoplasm and nucleus were classed as “live”. The number of pyroptotic cells was calculated using the merge of the brightfield and ASC-GFP channels. Only the cells with GFP specks were classed as “pyroptotic”. The number of apoptotic cells was calculated using the merge of the brightfield, ASC-GFP and Annexin V channels. Cells that were stained positive for Annexin V but without a GFP speck were classified as “apoptotic”. Images of ASC-GFP specks were acquired in 3 random fields in 4′,6-diaminidino-2-phenylindole (DAPI, 358 nm/461) and GFP (469 nm/525 nm) channels using the EVOS microscope (FL Auto M5000, #AM F5000) according to the manufacturer's protocol. […]

[2] = test system: NLRP1^DR; test: NLRP1 PYD-DR1 / NLRP1^DR phosphorylation (GFP fusion, immunoblot, PhosTag SDS-PAGE) in N-TERT cells
Text: as §1
Cells were directly harvested using Laemmli buffer, lysed with an ultrasonicator, and loaded into the Phos-tag gel to run. Once the run was completed, the polyacrylamide gel was washed in transfer buffer with 10 mM EDTA twice, subsequently washed without EDTA twice, blotted onto 0.45 μm PVDF membranes (Bio-rad), blocked with 3% milk, and incubated with primary and corresponding secondary antibodies.

[3] = test system: 293T-ASC-GFP-NLRP1; conditions: for ASC-GFP speck formation, screen of cytotoxic chemicals: ANS 1 μM, LTM 1 μg/ml, STS 1 μM
[4] = test system: N-TERT cells; test: Secreted IL1β / inflammasome activation in N-TERT cells
Procedure: To measure secreted cytokine and chemokine levels a human IL1β enzyme linked immunosorbent assay (ELISA) kit (BD, #557953), human IL-18 ELISA kit (MBL, #7620) or an Immune Monitoring 65-Plex Human ProcartaPlex Panel (EPX650-10065-901) were used according to manufacturer's protocols. Further analysis of Luminex or ELISA profiling of samples was performed using heatmap and PCA analysis on Clustervis (biitdotcsdotutdotee/clustvis/) [Somani et al., Proceeding of SSIC (2019)].
as §1

[5] = test system: NLRP1-NT; test: NLRP1 cleavage / NLRP1-NT level by immunoblot
Text: as §1

`CC1=C[C@H]2O[C@@H]3[C@H](O)C[C@](C)([C@@]2(CO)[C@H](O)C1=O)[C@]31CO1` [DON, deoxynivalenol] was tested, and the “morphological hallmarks of inflammasome activation and pyroptotic cell death” value (shortened to “morphological hallmarks”) [1] was “caused prominent inflammasome activation and pyroptosis”, the “NLRP1^DR hyperphosphorylation” value ([2]; NLRP1DR-GFP in N-TERT cells, PhosTag SDS-PAGE) was “also led to NLRP1^DR hyperphosphorylation” and the “band shift (phosphorylation) of PYD-DR1-GFP” value ([2]; NLRP1 KO N-TERT cells expressing GFP-tagged PYD-DR1) was “band shift in PYD-DR1-GFP”.
`C/C(=C\[C@H](C)C(=O)C[C@H](O)CC1CC(=O)NC(=O)C1)[C@@H]1OC(=O)/C=C/CC/C=C/C=C\[C@@H]1C` [LTM, Lactimidomycin] was tested, and the “ASC-GFP speck formation, screen of cytotoxic chemicals” value [3] was “identified two hits”, the “mode of cell death (apoptosis / pyroptosis)” value ([1]; Annexin V staining and PI inclusion, immunoblot markers) was “caused both apoptosis and pyroptosis” and the “morphological hallmarks” value [1] was “rapidly induced the morphological hallmarks of inflammasome activation and pyroptotic cell death”. For the same molecule, the “fraction of pyroptotic cells” value ([1]; single cell level, compared with VbP) was “comparable to that induced by VbP”.
With `Cc1cn(-c2cc(NC(=O)c3ccc(C)c(Nc4nccc(-c5cccnc5)n4)c3)cc(C(F)(F)F)c2)cn1` [Nilotinib, 4-methyl-N-[3-(4-methylimidazol-1-yl)-5-(trifluoromethyl)phenyl]-3-[(4-pyridin-3-ylpyrimidin-2-yl)amino]benzamide] the “effect on ANS-dependent ASC-GFP speck formation” value ([3]; Nilotinib 0.1 μM) was “abrogated all measures of ANS- and DT-dependent inflammasome activation”, the “effect on VbP-triggered pyroptosis” value [4] was “had no discernible effect on VbP-triggered pyroptosis” and the “effect on ANS- and DT-dependent inflammasome activation (ASC oligomerization, IL1β secretion)” value ([4]; wild-type N-TERT cells) was “abrogated all measures of ANS- and DT-dependent inflammasome activation”. For the same molecule, the “NLRP1 PYD-DR1 phosphorylation under inhibitor” value [2] was “loss of NLRP1 PYD-DR1 phosphorylation”.
In the case of `CN[C@@H]1C[C@H]2O[C@@](C)([C@@H]1OC)n1c3ccccc3c3c4c(c5c6ccccc6n2c5c31)C(=O)NC4` [STS, Staurosporine], the “ASC-GFP speck formation, screen of cytotoxic chemicals” value [3] is reported as “failed to induce ASC-GFP specks”.
With `CCCn1/c(=N/C(=O)c2cccc(C(N)=O)c2)[nH]c2ccccc21` [TAKinib] the “effect on ANS-induced IL1β secretion” value ([4]; selective TAK1 inhibitor) was “does not have an effect on ANS-induced IL1β secretion”.
`CN(CC[C@H](N)CC(=O)N[C@H]1C=C[C@H](n2ccc(N)nc2=O)O[C@@H]1C(=O)O)C(=N)N` [blasticidin, Blasticidin] was tested, and the “morphological hallmarks” value [1] was “none of the inhibitors that block the ribosome at the pre-elongation stages, including harringtonin, blasticidin and G418 caused any pyroptosis”.
`CC(C)C[C@H](NC(=O)[C@H](Cc1ccccc1)NC(=O)c1cnccn1)B(O)O` [bortezomib, [(1R)-3-methyl-1-[[(2S)-3-phenyl-2-(pyrazine-2-carbonylamino)propanoyl]amino]butyl]boronic acid] was tested, and the “effect on ANS- and TNFα+DT-triggered NLRP1 activation” value ([3]; 293T-NLRP1-ASC-GFP reporter cells, BTZ 0.5 μM, MLN4924 0.25 μM) was “abrogated ANS- and TNFα+DT-triggered NLRP1 activation”, the “effect on ANS- and TNFα+DT-triggered NLRP1 activation” value ([4]; N-TERTs, BTZ 0.5 μM, MLN4924 0.25 μM) was “abrogated ANS- and TNFα+DT-triggered NLRP1 activation” and the “effect on ribotoxin-triggered NLRP1-NT destabilization” value [5] was “could be blocked”.
In the case of `CC[C@H]1CN2CCc3cc(OC)c(OC)cc3[C@@H]2C[C@@H]1C[C@H]1NCCc2cc(OC)c(OC)cc21` [emetine], the “effect on ANS-induced IL1β secretion” value ([4]; 150 μM emetine) is reported as “completely abrogated”.
With `COC(=O)C[C@](O)(CCC(C)(C)O)C(=O)O[C@@H]1C(OC)=C[C@]23CCCN2CCc2cc4c(cc2[C@H]13)OCO4` [harringtonin, Harringtonine] the “morphological hallmarks” value [1] was “none of the inhibitors that block the ribosome at the pre-elongation stages, including harringtonin, blasticidin and G418 caused any pyroptosis”.
